Values quoted from earlier work in patent US10703699B2, “Solubilization of pterostilbene and resveratrol for aqueous beverages” (Ironstone Separations, Inc., priority 2013, dated 2020).

How the values were obtained:
[1] = animal studies

bioavailability [1] [%]	Solubility in aqueous media	Compound
20		Oc1ccc(/C=C/c2cc(O)cc(O)c2)cc1 [Resveratrol, 3,5,4′-trihydroxy-trans-stilbene]
80	very low	trans-3,5-dimethoxy-4-hydroxystilbene [Pterostilbene]
